Measured values: the supplement of paper PMC10307832

Columns and labels:
Test in all cases: relative viability (nuclei count vs DMSO), 5 days (fraction); higher = more cells survive
[1] = compound: COc1cc2c(Oc3ccc4[nH]c(C)cc4c3F)ncnc2cc1OCCCN1CCCC1 [Cediranib] + CC(=O)Nc1cccc(-n2c(=O)n(C3CC3)c(=O)c3c(Nc4ccc(I)cc4F)n(C)c(=O)c(C)c32)c1 [Trametinib] (partner 0.02 µM)
Summary of the method: (§1)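 Lung cancer cell lines, seeded in 1536-well plates, were treated the following day by pin tool with a single drug or with five library-drug doses (not always all listed) in √10 steps on top of a fixed anchor-drug dose. Cells were fixed and nuclei stained in one step after 5 days, and nuclei were counted. Relative viability is the nuclei count for treated wells divided by that for vehicle wells, reported as medians of duplicate plates.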

[2] = compound: Nc1ncn([C@H]2C[C@H](O)[C@@H](CO)O2)c(=O)n1 [Decitabine] + CC1(C)CCC(c2ccc(Cl)cc2)=C(CN2CCN(c3ccc(C(=O)NS(=O)(=O)c4ccc(N[C@H](CCN5CCOCC5)CSc5ccccc5)c(S(=O)(=O)C(F)(F)F)c4)cc3)CC2)C1 [Navitoclax] (partner 0.5 µM)
Summary of the method: as §1

[3] = compound: COc1cc2c(Oc3ccc4[nH]c(C)cc4c3F)ncnc2cc1OCCCN1CCCC1 [Cediranib] + O=C(CCCCCCC(=O)Nc1ccccc1)NO [Vorinostat] (partner 1 µM)
Summary of the method: as §1

| Cell Line | relative viability ([1]; first compound 0.04 µM) | relative viability ([1]; first compound 0.1265 µM) | relative viability ([1]; first compound 0.4 µM) | relative viability ([1]; first compound 1.265 µM) | relative viability ([1]; first compound 4 µM) | relative viability ([2]; first compound 0.04 µM) | relative viability ([2]; first compound 0.1265 µM) | relative viability ([2]; first compound 0.4 µM) | relative viability ([2]; first compound 1.265 µM) | relative viability ([2]; first compound 4 µM) | relative viability ([3]; first compound 0.04 µM) | relative viability ([3]; first compound 0.1265 µM) | relative viability ([3]; first compound 0.4 µM) | relative viability ([3]; first compound 1.265 µM) | relative viability ([3]; first compound 4 µM) |
| --- | --- | --- | --- | --- | --- | --- | --- | --- | --- | --- | --- | --- | --- | --- | --- |
| 201T | 0.705 | 0.792 | 0.707 | 0.719 | 0.724 | 1.16 | 1.14 | 1.27 | 1.13 | 1.1 | 1.08 | 0.631 | 0.84 | 0.973 | 1.04 |
| A549 |  |  |  |  |  | 0.929 | 0.875 | 0.331 | 0.117 | 0.077 |  |  |  |  |  |
| A-427 | 0.747 |  | 0.717 | 0.684 | 0.737 | 0.674 | 0.578 | 0.365 | 0.255 | 0.191 | 0.846 |  | 0.835 | 0.853 | 0.882 |
| ABC-1 |  |  |  |  |  |  |  |  |  |  | 1.11 | 0.821 | 1.14 | 1.13 | 1.24 |
| BEN | 1.12 | 0.936 | 1.02 | 1.02 | 0.986 | 0.0613 | 0.0587 | 0.0516 | 0.0522 | 0.0591 | 0.669 | 0.445 | 0.592 | 0.552 | 0.588 |
| CAL-12T | 0.443 | 0.362 | 0.319 | 0.248 | 0.341 | 1.02 | 0.867 | 0.752 | 0.627 | 0.497 | 0.942 | 0.808 | 0.772 | 0.701 | 1.05 |
| COR-L23 | 0.608 | 0.578 | 0.573 | 0.425 | 0.532 | 0.577 | 0.478 | 0.382 | 0.294 | 0.207 | 0.52 | 0.428 | 0.412 | 0.433 | 0.458 |
| COR-L 105 | 0.438 | 0.478 | 0.415 | 0.384 | 0.43 | 0.539 | 0.534 | 0.437 | 0.318 | 0.316 | 0.921 | 0.847 | 0.733 | 0.766 | 0.91 |
| Calu-6 |  |  |  |  |  | 0.6 | 0.457 | 0.302 | 0.277 | 0.207 |  |  |  |  |  |
| ChaGo-K-1 | 0.875 | 0.821 | 0.878 | 0.868 | 0.909 | 0.681 | 0.762 | 0.479 | 0.611 | 0.565 | 0.719 | 0.377 | 0.719 | 0.757 | 0.808 |
| EBC-1 |  |  |  |  |  | 0.21 | 0.257 | 0.2 | 0.178 | 0.15 |  |  |  |  |  |
| EKVX | 0.283 | 0.4 | 0.343 |  | 0.402 | 0.75 | 0.809 | 0.561 | 0.365 | 0.347 | 0.956 | 0.534 | 0.63 | 0.916 | 0.697 |
| EMC-BAC-2 | 0.823 |  | 0.842 | 0.82 | 0.923 | 1.08 | 1.12 | 0.773 | 0.705 | 0.605 | 0.403 |  | 0.407 | 0.485 | 0.499 |
| EPLC-272H | 0.318 |  | 0.278 | 0.269 | 0.242 | 0.734 | 0.658 |  | 0.426 | 0.413 | 0.38 | 0.448 | 0.401 | 0.527 | 0.383 |
| H3255 | 0.606 |  | 0.623 |  | 0.567 | 0.201 | 0.331 | 0.353 | 0.328 | 0.276 | 0.921 |  | 0.706 |  | 0.735 |
| HARA | 0.803 | 0.81 | 0.62 | 0.882 | 0.831 | 0.9 | 0.66 | 0.568 | 0.512 | 0.399 | 0.549 | 0.315 | 0.489 | 0.64 | 0.519 |
| HCC-15 | 0.389 |  | 0.362 | 0.337 | 0.404 | 0.654 | 0.646 | 0.469 | 0.413 | 0.348 | 0.814 |  | 0.821 | 0.907 | 0.916 |
| HCC-44 | 1.2 | 0.907 | 1.1 | 1.05 | 1.07 | 0.78 | 0.74 | 0.362 | 0.408 | 0.425 | 1.14 | 0.94 | 1.07 | 1.1 | 1.11 |
| HCC-78 | 0.742 | 1.02 | 0.721 | 0.915 | 0.919 | 0.71 | 0.561 | 0.458 | 0.329 | 0.284 | 0.45 | 0.367 | 0.443 | 0.499 | 0.49 |
| HCC-366 | 0.384 | 0.404 | 0.301 | 0.327 | 0.398 | 0.92 | 0.906 | 0.382 | 0.232 | 0.133 | 0.346 | 0.401 | 0.29 | 0.287 | 0.394 |
| HCC-827 | 0.6 | 0.791 | 0.529 | 0.539 | 0.497 |  | 0.471 | 0.404 | 0.269 | 0.939 | 0.847 | 0.574 | 0.846 | 0.729 | 1.12 |
| HOP-62 | 0.442 | 0.404 | 0.346 | 0.387 | 0.42 | 0.572 | 0.388 | 0.15 | 0.172 | 0.14 | 0.633 | 0.418 | 0.575 | 0.468 | 0.896 |
| IA-LM |  |  |  |  |  | 0.415 | 0.313 | 0.156 | 0.162 | 0.169 | 1.12 |  | 0.895 | 1.03 | 1.06 |
| LC-2-ad | 0.94 | 0.915 | 0.901 | 0.995 | 0.841 | 0.323 | 0.325 | 0.253 | 0.197 | 0.148 | 0.678 | 0.625 | 0.669 | 0.825 | 0.705 |
| LCLC-97TM1 | 0.196 |  | 0.207 | 0.187 | 0.214 | 0.16 | 0.194 | 0.172 | 0.103 | 0.684 | 0.655 |  | 0.536 | 0.707 | 1.08 |
| LCLC-103H | 0.73 | 0.664 | 0.676 | 0.747 | 0.7 |  |  |  |  |  | 0.824 | 0.572 | 0.767 | 0.78 | 0.898 |
